Data on 7 compounds can be found in ChEMBL document CHEMBL2202958, “Development of potent macrocyclic inhibitors of genotype 3a HCV NS3/4A protease” (Bioorg Med Chem Lett, 2012).

A word on the Ki: it is a dissociation constant, usually derived from enzyme kinetics or from competition with a known ligand. As usually defined, the IC50 is the concentration that inhibits the measured activity by half.

Where only a bound is given, the exact number is not on record here.

A short description of data set [1]: Inhibition of HCV3a NS3/4A protease. Also on record: species or system Hepatitis C virus subtype 3a.
In data set [2] the test system is Hepatitis C virus. In words: Inhibition of HCV1b NS3/4A protease. Also on record: species or system Hepatitis C virus subtype 1b.
Data set [3] in a line: Drug level in Sprague-Dawley rat liver at 5 mg/kg, po after 4 hrs. It is filed as ADME, organism-based. Also on record: dose 5 mg/kg, route oral. The settings on record: read-out: Drug uptake.
The test system of data set [4] is Hepatitis C virus. In words: Antiviral activity against HCV1b con1 infected in human Huh-7 cells assessed as inhibition of viral replication after 24 hrs in presence of 10% fetal bovine serum. Type of data set: functional, organism-based, Hepacivirus hominis. The settings on record: Con1, Huh-7, 24 h.
Data set [5] deals with Hepatitis C virus. In words: Antiviral activity against HCV1b con1 infected in human Huh-7 cells assessed as inhibition of viral replication after 24 hrs in presence of 50% normal human serum. Particulars: Con1, Huh-7, 24 h. Type of data set: functional, organism-based, Hepacivirus hominis.
Data set [6] relates to Hepatitis C virus. In words: Inhibition of HCV1b NS3/4A protease R155K mutant by time-resolved fluorescence assay. Also on record: species or system Hepatitis C virus subtype 1b.
Data set [7] deals with Hepatitis C virus. Briefly: Inhibition of HCV1b NS3/4A protease A156T mutant by time-resolved fluorescence assay. Also on record: species or system Hepatitis C virus subtype 1b.
Data set [8] in a line: Inhibition of HCV1b BK NS3/4A protease expressed in Escherichia coli after 1 hr by time-resolved fluorescence assay. The arrangement: species or system Hepatitis C virus (isolate BK).
A short description of data set [9]: Inhibition of HCV3a NS3/4A protease by time-resolved fluorescence assay. Also on record: species or system Hepatitis C virus subtype 3a.
For data set [10], the system named is Hepatitis C virus. In words: Antiviral activity against HCV1b by cell based replicon assay. The settings on record: genotype 1b. Type of data set: functional, organism-based, Hepacivirus hominis.

In the case of `C=C[C@@H]1C[C@]1(NC(=O)[C@@H]1C[C@@H]2CN1C(=O)[C@H](C1CCCC1)NC(=O)OCC(C)(C)C/C=C/c1cc3c(cc(-c4ccccc4)nc3cc1OC)O2)C(=O)NS(=O)(=O)C1CC1`, the values for the Ki (in data set [1]; in the data set on Hepatitis C virus [2]) were 17 nM and under 0.16 nM, respectively. Moreover, the concentration at 4 h in [3] worked out at 41 µM.

Consider `C=C[C@@H]1C[C@]1(NC(=O)[C@@H]1C[C@@H]2CN1C(=O)[C@H](C1CCCCC1)NC(=O)OCC(C)(C)CCCc1cc3c(cc(OCc4csc(C)n4)nc3cc1OC)O2)C(=O)NS(=O)(=O)C1CC1`, for which the 50% inhibitory concentration (IC50) in the data set on Hepatitis C virus [4] amounted to 3.5 nM; in the data set with Hepatitis C virus [5] it was 16 nM. For the same compound, the Ki with Hepatitis C virus [6] was found to be 2.1 nM; with Hepatitis C virus [7], 88 nM; in data set [8], 0.1 nM; in data set [9] it was 3.1 nM. Further, the concentration at 4 h in data set [3] came to 19 µM.

For the compound `C=C[C@@H]1C[C@]1(NC(=O)[C@@H]1C[C@@H]2CN1C(=O)[C@H](C(C)(C)C)NC(=O)OCCC/C=C/c1ccc3ccnc(c3c1)O2)C(=O)NS(=O)(=O)C1CC1`, the inhibition constant (Ki) turned out to be 475 nM in data set [1] and 0.04 nM with Hepatitis C virus [2]. The same compound had a 50% inhibitory concentration (IC50) in the data set with Hepatitis C virus [10] of 4.5 nM.

As to `C=C[C@@H]1C[C@]1(NC(=O)[C@@H]1C[C@@H]2CN1C(=O)[C@H](C1CCCC1)NC(=O)OCC(C)(C)CCCc1cc3c(nc4cc(OC)ccc4c3cc1OC)O2)C(=O)NS(=O)(=O)C1CC1`, the 50% inhibitory concentration (IC50) with Hepatitis C virus [4] amounted to 4 nM; in the data set on Hepatitis C virus [5] it was 27 nM. Further, the Ki in the data set with Hepatitis C virus [6] was 0.4 nM; in the data set with Hepatitis C virus [7] it was 16 nM; in [8], under 0.02 nM; in [9] it was 0.8 nM. The concentration at 4 h in [3] turned out to be 35 µM.

Turning to `C=C[C@@H]1C[C@]1(NC(=O)[C@@H]1C[C@@H]2CN1C(=O)[C@H](C1CCCC1)NC(=O)OCC(C)(C)CCCc1cc3c(cc(OCC)nc3cc1OC)O2)C(=O)NS(=O)(=O)C1CC1`, the IC50 in the data set on Hepatitis C virus [4] came out at 2 nM; with Hepatitis C virus [5], 11 nM. Moreover, the inhibition constant Ki with Hepatitis C virus [6] was 1.3 nM; in the data set with Hepatitis C virus [7], 41 nM; in data set [8], 0.03 nM; in data set [9], 2.2 nM. In data set [3], the concentration at 4 h was 35 µM.

As to `C=C[C@@H]1C[C@]1(NC(=O)[C@@H]1C[C@@H]2CN1C(=O)[C@H](C1CCCCC1)NC(=O)OCC(C)(C)CCCc1cc3c(cc(N(C)C(=O)OCC)nc3cc1OC)O2)C(=O)NS(=O)(=O)C1CC1`, the half-maximal inhibitory concentration (IC50) with Hepatitis C virus [4] is 5 nM; in the data set with Hepatitis C virus [5], 27 nM. The Ki was 3.3 nM in the data set on Hepatitis C virus [6], 87 nM in the data set with Hepatitis C virus [7], 0.03 nM in data set [8] and 4.3 nM in data set [9]. Besides, in [3], the concentration at 4 h turned out to be 42 µM.

In the case of `C=C[C@@H]1C[C@]1(NC(=O)[C@@H]1C[C@@H]2CN1C(=O)[C@H](C(C)C)NC(=O)N(C)CCCCCc1cc3c(cc(-c4ccccc4)nc3cc1OC)O2)C(=O)NS(=O)(=O)C1CC1`, the Ki in data set [1] is 5.8 nM; in the data set with Hepatitis C virus [2], under 0.16 nM. Moreover, the concentration at 4 h in [3] was 0.304 µM.
